Results reported in patent US8663669B2, “Pesticide treatment of soils or substrates with sulphur compounds” (Arkema France, priority 2002, dated 2014).

Legend:
Sclerotium rolfsii = assay: Fungicidal efficacy by gassing, sclerotia; assay type: cell-based; design: Vitality score Nm (over 19 days): scale not given here; Reduction in viability RV / Reduction in vitality score RNm: unit not given here; details: for Reduction in viability RV / Reduction in vitality score RNm: compared with the control
Description: These four organisms are the following:
Sclerotium rolfsii: a fungus which is also polyphagous and which is found, for example, on melon and courgette crops.
• Sclerotinia sclerotiorum: sclerotia • Sclerotium rolfsii: sclerotia • Rhizoctonia solani: colonized barley grains (mycelium and sclerotia) • Phytophthora cactorum: colonized millet grains (mycelium, sporangia and oospores) Preparation of the Fungi (24 h Before the Gassing Operation) 1. Preparation of the sclerotia of Sclerotinia sclerotiorum and of Sclerotium rolfsii: The fungi are cultured on malt agar medium until the sclerotia are obtained. The sclerotia are collected in a sterile manner and stored dry in empty Petri dishes until they are used. The sclerotia used for the trial are over 3 months old and are perfectly dormant. 2. Preparation of Phytophthora cactorum and of Rhizoctonia solani: The millet and barley used for the multiplication of the two fungi are moistened with ultrapure water by immersing for 24 hours. The grains are then slightly drained and then distributed into flasks and autoclaved (3 autoclavings at 110° C. for 20 minutes, 3 times at 24 hour intervals). Fragments of fungal culture are introduced into the flasks which are then incubated at 22° C.±2° C. (white light 18 h) until homogeneous colonization is obtained. The grains are then removed from the flasks in a sterile manner, dried in the sterile stream of a safety cabinet and then stored in the dry state until they are used. Conditions for Gassing and for Desorption
All the batches of fungi to be treated are placed for a few hours at the trial temperature (20° C.). Between 35 and 300 units of fungi or “propagules” (grains or sclerotia) are subjected to gassing during each trial.
Each fumigation chamber comprising to one or more species of fungi corresponds to a glass round-bottomed flask which is impervious to the gas and has a volume of 11 litres. Each round-bottomed flask is equipped with branch connections, one at the bottom for introducing the liquid DMDS, one at the top for collecting the air sample with a syringe.
Before introducing the gas, a partial vacuum (−500 mbar) is established in the round-bottomed flask with a vacuum pump. This makes it possible, on the one hand, to avoid the phenomenon of excess pressure due to the expansibility of DMDS in the round-bottomed flask and, on the other hand, to promote better homogeneity of the air-gas mixture in the first few seconds which follow injection. The DMDS (weighed accurately to the mg) is injected with a syringe, in liquid form, through the bottom branch connection, that is to say under the screen placed at half height of the round-bottomed flask and supporting the batches of fungi. After introducing the product, the internal pressure of the round-bottomed flask is re-established at atmospheric pressure. A magnetic stirrer operates during the entire duration of the treatment in order to properly homogenize the air-gas mixture.
At the end of the gassing, the cover for the round-bottomed flask is removed. One minute after this operation, the batches of fungi gassed are taken out and left in the open air for 15 minutes for desorption of the DMDS. They are then transferred into a Petri dish, the latter remaining open for 5 minutes to allow perfect desorption of the gas. […]

soil microorganisms = assay: Effect on soil microorganisms (oxygen consumed); details: 150 kg/ha (formulation A)
Description: The effect of DMDS, applied at 150 kg/ha in the form of formulation A, to soil microorganisms was evaluated according to the following standard methods: • “Recommended tests for assessing the side-effects of pesticides on the soil micro flora”, Technical Report Agricultural Research Council Weed Research Organization, 1980 (59). • “OECD Guideline for Testing of Chemicals—Soil Microorganisms: Carbon Mineralization Test”, Draft document, June 1996.
The effect of DMDS on soil microorganisms is measured by the reduction in the oxygen consumed by these microorganisms, expressed in mg O2 per kg of dry soil per h, 14, 28, 42, 57 days after the treatment (Table 14).

[1] = CT 1 050 g·h/m^3 (C 15.91 g/m^3, T 66 h)
[2] = CT 1 402 g·h/m^3 (C 21.24 g/m^3, T 66 h)
[3] = CT 1 450 g·h/m^3 (C 30.96 g/m^3, T 48 h)
[4] = CT 1 899 g·h/m^3 (C 28.77 g/m^3, T 66 h)
[5] = CT 1 981 g·h/m^3 (C 30.02 g/m^3, T 66 h)
[6] = CT 2 460 g·h/m^3 (C 51.25 g/m^3, T 48 h)
[7] = CT 2 471 g·h/m^3 (C 37.44 g/m^3, T 66 h)
[8] = CT 2 837 g·h/m^3 (C 42.98 g/m^3, T 66 h)
[9] = CT 2 974 g·h/m^3 (C 45.06 g/m^3, T 66 h)
[10] = CT 3 169 g·h/m^3 (C 48.02 g/m^3, T 66 h)
[11] = CT 3 467 g·h/m^3 (C 52.53 g/m^3, T 66 h)
[12] = CT 419 g·h/m^3 (C 17.46 g/m^3, T 24 h)
[13] = CT 625 g·h/m^3 (C 26.04 g/m^3, T 24 h)
[14] = CT 703 g·h/m^3 (C 29.29 g/m^3, T 24 h)
[15] = CT 907 g·h/m^3 (C 37.79 g/m^3, T 24 h)

CSSC [DMDS, dimethyl disulphide]
Viability V (Sclerotium rolfsii; [1]): 27.6% | Vitality score Nm (over 19 days) (Sclerotium rolfsii; [1]): 2.1 | Reduction in viability RV (Sclerotium rolfsii; [1]): 68.0 | Reduction in vitality score RNm (Sclerotium rolfsii; [1]): 71.1 | Viability V (Sclerotium rolfsii; [2]): 18.3% | Vitality score Nm (over 19 days) (Sclerotium rolfsii; [2]): 1.3 | Reduction in viability RV (Sclerotium rolfsii; [2]): 78.7 | Reduction in vitality score RNm (Sclerotium rolfsii; [2]): 81.8 | Viability V (Sclerotium rolfsii; [3]): 15.0% | Vitality score Nm (over 19 days) (Sclerotium rolfsii; [3]): 0.7 | Reduction in viability RV (Sclerotium rolfsii; [3]): 83.2 | Reduction in vitality score RNm (Sclerotium rolfsii; [3]): 91.8 | Viability V (Sclerotium rolfsii; [4]): 3.1% | Vitality score Nm (over 19 days) (Sclerotium rolfsii; [4]): 0.2 | Reduction in viability RV (Sclerotium rolfsii; [4]): 96.4 | Reduction in vitality score RNm (Sclerotium rolfsii; [4]): 96.8 | Viability V (Sclerotium rolfsii; [5]): 4.3% | Vitality score Nm (over 19 days) (Sclerotium rolfsii; [5]): 0.3 | Reduction in viability RV (Sclerotium rolfsii; [5]): 95.0 | Reduction in vitality score RNm (Sclerotium rolfsii; [5]): 95.1 | Viability V (Sclerotium rolfsii; [6]): 10.0% | Vitality score Nm (over 19 days) (Sclerotium rolfsii; [6]): 0.4 | Reduction in viability RV (Sclerotium rolfsii; [6]): 88.8 | Reduction in vitality score RNm (Sclerotium rolfsii; [6]): 94.7 | Viability V (Sclerotium rolfsii; [7]): 0% | Vitality score Nm (over 19 days) (Sclerotium rolfsii; [7]): 0 | Reduction in viability RV (Sclerotium rolfsii; [7]): 100 | Reduction in vitality score RNm (Sclerotium rolfsii; [7]): 100 | Viability V (Sclerotium rolfsii; [8]): 0% | Vitality score Nm (over 19 days) (Sclerotium rolfsii; [8]): 0 | Reduction in viability RV (Sclerotium rolfsii; [8]): 100 | Reduction in vitality score RNm (Sclerotium rolfsii; [8]): 100 | Viability V (Sclerotium rolfsii; [9]): 0% | Vitality score Nm (over 19 days) (Sclerotium rolfsii; [9]): 0 | Reduction in viability RV (Sclerotium rolfsii; [9]): 100 | Reduction in vitality score RNm (Sclerotium rolfsii; [9]): 100 | Viability V (Sclerotium rolfsii; [10]): 0% | Vitality score Nm (over 19 days) (Sclerotium rolfsii; [10]): 0 | Reduction in viability RV (Sclerotium rolfsii; [10]): 100 | Reduction in vitality score RNm (Sclerotium rolfsii; [10]): 100 | Viability V (Sclerotium rolfsii; [11]): 0% | Vitality score Nm (over 19 days) (Sclerotium rolfsii; [11]): 0 | Reduction in viability RV (Sclerotium rolfsii; [11]): 100 | Reduction in vitality score RNm (Sclerotium rolfsii; [11]): 100 | Viability V (Sclerotium rolfsii; [12]): 59.1% | Vitality score Nm (over 19 days) (Sclerotium rolfsii; [12]): 5.1 | Reduction in viability RV (Sclerotium rolfsii; [12]): 33.7 | Reduction in vitality score RNm (Sclerotium rolfsii; [12]): 40.9 | Viability V (Sclerotium rolfsii; [13]): 53.7% | Vitality score Nm (over 19 days) (Sclerotium rolfsii; [13]): 4.8 | Reduction in viability RV (Sclerotium rolfsii; [13]): 39.8 | Reduction in vitality score RNm (Sclerotium rolfsii; [13]): 44.3 | Viability V (Sclerotium rolfsii; [14]): 51.4% | Vitality score Nm (over 19 days) (Sclerotium rolfsii; [14]): 4.4 | Reduction in viability RV (Sclerotium rolfsii; [14]): 42.4 | Reduction in vitality score RNm (Sclerotium rolfsii; [14]): 48.7 | Viability V (Sclerotium rolfsii; [15]): 16.2% | Vitality score Nm (over 19 days) (Sclerotium rolfsii; [15]): 1.4 | Reduction in viability RV (Sclerotium rolfsii; [15]): 81.8 | Reduction in vitality score RNm (Sclerotium rolfsii; [15]): 84.2 | Oxygen consumed by soil microorganisms (soil microorganisms; Day 0, untreated control 11.23): 9.70 mg O2 per kg of dry soil per h | Oxygen consumed by soil microorganisms (soil microorganisms; Day 14, untreated control 10.18): 8.74 mg O2 per kg of dry soil per h | Oxygen consumed by soil microorganisms (soil microorganisms; Day 28, untreated control 7.87): 6.62 mg O2 per kg of dry soil per h | Oxygen consumed by soil microorganisms (soil microorganisms; Day 42, untreated control 9.12): 8.93 mg O2 per kg of dry soil per h | Oxygen consumed by soil microorganisms (soil microorganisms; Day 57, untreated control 7.30): 4.90 mg O2 per kg of dry soil per h
